The source of these data is ChEMBL document CHEMBL1134889, “Clarification of mechanism of human sputum elastase inhibition by a new inhibitor, ONO-5046, using electrospray ionization mass spectrometry” (Bioorg Med Chem Lett, 2002).

Experiment [1] relates to Cavia porcellus. Put plainly: Percent inhibition effect of ONO-5046 on the increase of skin capillary permeability induced by HNE in guinea pigs in vivo on administration of 10 mg/Kg dose iv in guinea pig. Type of experiment: functional.
Experiment [2] has as its system Cavia porcellus. Put plainly: Percent inhibition effect of ONO-5046 on the increase of skin capillary permeability induced by HNE in guinea pigs in vivo on administration of 3 mg/Kg dose iv in guinea pig. It is filed as functional.

The inhibition in vivo is the relative decrease from the control value, in per cent. A low value points to a weak effect. The compound `CC(C)(C)C(=O)Oc1ccc(S(=O)(=O)Nc2ccccc2C(=O)NCC(=O)O)cc1` displayed an inhibition in vivo at 10 mg/kg with Cavia porcellus [1] of 51.8%. Moreover, the inhibition in vivo at 3 mg/kg in the experiment on Cavia porcellus [2] stood at 31.7%.
